Laboratory results as given in article PMC10470313, “Developing a peptide to disrupt cohesin head domain interactions” (iScience, 2023).
“And” between values parts separate entries of the source, which are not always exact repeats. Equal entries are not always repeated. “Also recorded” adds a separate entry of the source.

B1: Smc3 head domain (domain or fragment, S. cerevisiae)
chain: YIKRVIIKGFKTYRNETIIDNFSPHQNVIIGSNGSGKSNFFAAIRFVLSDDYSNLKREERQGLIHQGSGGSVMSASVEIVFHDPDHSMILPSGVLSRGDDEVTIRRTVGLKKDDYQLNDRNVTKGDIVRMLETAGFSMNNPYNIVPQGKIVALTNAKDKERLQLLEDVVGAKSFEVKLKASLKKMEETEQKKIQINKEMGELNESSKHPTSLVPRGNFKKFNERRKDLAERASELDESKDSIQDLIVKLKQQKVNAVDSTFQKVSENFEAVFERLVPRGTAKLIIHRKNDNANDHDESIDVDMDAESNESQNGKDSEIMYTGVSISVSFNSKQNEQLHVEQLSGGQKTVCAIALILAIQMVDPASFYLFDEIDAALDKQYRTAVATLLKELSKNAQFICTTFRTDMLQVADKFFRVKYENKISTVIEVNREEAIGFIRGSNKFAEV
notes: Smc3, S. cerevisiae, N-terminal part of the head domain, amino acids 2-204; 13 amino acids linker in place of the coiled coil and hinge; Smc3, S. cerevisiae, C-terminal part of the head domain, amino acids 1001-1230; also called Smc3hd; source: E. coli BL21, purified (Ni-NTA, twice)

Legend:
yeast cells = assay: Yeast growth with CIP3 expressed from T2A ribosome-skipping vector; format: cell-based, Saccharomyces cerevisiae; details: CIP3 followed by GFP in T2A vector, GAL promoter
From the text: The weak effect of CIP3 expressed in cells may relate to several reasons, including low expression levels, low translation efficiency, or cellular instability of short mRNAs and peptides. We tried to increase cellular mRNA stability by using a plasmid containing the T2A ribosome-skipping sequence under GAL promoter control.[29]^,[30]^,[31] Two genes cloned in tandem and separated by a T2A linker were expressed as a single mRNA. The ribosome skips the T2A sequence during translation, resulting in two separate proteins (Figure S1A. Peptide expression from a plasmid containing T2A ribosome-skipping sequence, related to Figure 2). To test the system, we cloned green fluorescent protein (GFP) and mCherry in tandem, separated by the T2A sequence. Cells carrying the plasmids were grown in SC-URA with either noninducing raffinose or inducing galactose. […] Both GFP and mCherry proteins were detected by western blot analysis of extracts from these cells (Figure S1C. Peptide expression from a plasmid containing T2A ribosome-skipping sequence, related to Figure 2). […]

[1] = test system: yeast cells (pGAL-CIP strains); assay: Yeast growth rate with galactose-induced peptide expression (OD600); format: cell-based, Saccharomyces cerevisiae; details: OD 600 nm every 120 min; for growth of cells overexpressing the peptide: SC-URA galactose medium, compared with control plasmid; for growth rate vs control, multiple linear regression coefficient B: logarithmic phase, galactose medium, representative experiment, vs control strain yIO1000
From the text: We designed three cohesin-inhibiting peptides (CIPs, Table 1) to inhibit Smc1/Smc3 protein-protein interaction. CIP1 and CIP2 were derived from conserved regions in Smc3, while CIP3 was derived from a conserved region in Smc1 (Figure 1E). To explore the biological effect of the peptides on cohesin, we sought to overexpress them in cells. For that purpose, we constructed a centromeric plasmid—pME4 (CIP1), pME2 (CIP2), and pME3 (CIP3), in which the peptide coding sequence was inserted after an ATG codon and under the control of a GAL promoter. Cells were transformed with the plasmids and grown in an SC-URA medium. In addition, we transformed cells with a control plasmid (pIO014).
(§1) Strains yIO1000 (control) and yME-031 (pGAL-CIP1), yME-016 (pGAL-CIP2), and yME-019 (pGAL-CIP3) cells were diluted in SC-URA galactose medium, and their growth rate was measured by optical density at 600 nm every 120 min. Cohesin is essential for cell division, so we expected that inhibition of cohesin activity by expressing a CIP would affect the cell growth rate.
Figure 2 CIP3 causes cell growth delay Strains yIO1000 (control) and yME-031 (pGAL-CIP1), yME-016 (pGAL-CIP2), and yME-019 (pGAL-CIP3) cells were grown in a galactose-containing medium to induce peptide expression. Cell growth was monitored every 120 min to measure the optical density of the culture at 600 nm. The growth rate in the logarithmic growth phase was calculated. The results of a representative experiment are shown.

cohesin holocomplex = assay: ATPase assay of cohesin holocomplex (free Pi); format: biochemical, S. cerevisiae; details: 10 nM cohesin, 20 nM loader, dsDNA, 0.25 mM ATP, 20 mM TAT-CIP3 as printed, 30°C, absorbance 650 nm
Procedure: The formation of the Smc3-CIP3 complex likely affects the ATPase activity. To explore this possibility, we expressed and purified S. cerevisiae cohesin holocomplex and the loader from yeast cells[37] (Figure S4. Purification of cohesin holocomplex and loader, related to Figure 3), and we measured the ATPase rate of cohesin in the presence of cohesin, the loader DNA, and ATP, as previously described.[37] Cohesin was preincubated without or with CIP3, and the accumulation of free Pi was measured over 30 min. In the absence of CIP3, Pi accumulation was constant over time, indicating continuous ATP hydrolysis.
Cohesin and the Scc2-Scc4 loader were expressed in S. cerevisiae as described in[37] with the following modifications: Cells were resuspended in buffer A (50 mM Hepes-NaOH pH 7.5, 300 mM NaCl, 2 mM MgCl2, 20% (vol/vol) glycerol, 0.5 mM Tris(2-carboxyethyl)phosphine hydrochloride (TCEP), 0.5 mM Pefabloc (Sigma-Aldrich), and a protease inhibitor cocktail (Sigma-Aldrich) and lysed by seven continuous passes in EmulsiFlexby-C3 (Avastin) at 4°C. The lysate was clarified, and purifications were continuous, as described in.[37]
ATPase assay has been done with the piColorLock kit (Expedeon) according to the manufacturer manual. […] The reaction was incubated at 30°C for 20 minutes and the amount of free was measured for 30 min minutes by absorbance in 650 nm every 5 min […].

[2] = test system: yIO-001 strain yeast cells; assay: Peptide entry into yeast cells (epifluorescence microscopy); format: cell-based; details: 10 mM peptide, 1 h, 30°C, mid-log phase, FITC epifluorescence
Procedure: The formation of Smc3/CIP3 complexes supports our preliminary conclusion that CIP3 inhibits cohesin activity in cells. Aiming to improve the stability of the peptide in cells, we switched to using an in vitro synthesized peptide. This approach has been successfully used to inhibit protein-protein interactions in both yeast and mammalian cells.[26]^,[38]^,[39]^,[40]^,[41] […] We validated peptide entry into yeast by incubating a 26-amino acid control peptide (ContP), which was fused to the TAT, and a fluorescein isothiocyanate (FITC) fluorophore. Thereafter, 10 mM of the ContP was added to yIO-001 strain cells grown to mid-log phase at 30°C. The cells were incubated with the peptide for 1 h and analyzed by epifluorescence microscopy.
Supplementary Figure S3. Binding of CIP3-TAT to cohesin by microscale thermophoresis, Related to Figure 3. 10 µM CIP3-TAT was added to protein extracts from strain yAM-945 (Smc3-GFP). The formation of the CIP3-TAT and cohesin complex was analyzed by MST in binding mode. A. MST trace. B. Binding analysis.
Supplementary Figure S4. […]
3. […] The purified proteins were analyzed on gel, followed by coomassie staining. […]
Supplementary Figure S5. […] The entry of the peptide into the cells was analyzed by epifluorescence microscopy.
Supplementary Figure S6. […] The cell cycle stage of the cells, described in Fig. 4B, was determined by flow cytometry. […]

cohesin in yeast cells = assay: Preliminary analysis of biological effect; format: cell-based
Procedure: as §1
The CIP3 sequence is derived from the C-terminal region of Smc1. The 15 amino acid sequence is conserved, encoding part of a short loop and the beginning of an alpha helix located at the bottom of the head domain (Figures 1A–1C). […] We used the HPepDock 2.0 server[32]^,[33]^,[34]^,[35] to predict the docking site of CIP3 on Smc3. The coordinates of the Smc3 structure (PDB: 4ux3)[36] were entered as the receptor input and CIP3 as the sequence as the peptide input and the analysis was done using the default parameter. […] CIP3 may interfere with ATP binding to the Walker A site in Smc3. Alternatively, it may misplace the hydrolysis motif in Smc1 and inhibit that ATPase activity. It is important to note that dynamics models are required to understand the structural basis of the Smc3-CIP3 complex fully, as well as experimental validation of the model.

CIP3-TAT [3] = molecular target: T1, CIP3-TAT (S. cerevisiae | HIV); assay: field-effect biosensing (FEB Agile R100); 500 nM peptide immobilised on a graphene sensor chip; purified Smc3 head domain as analyte, incubated with ATP (10 mM) before the measurement; details: both partners purified
T1 construct: Smc1, S. cerevisiae, residues 1121-1135 (conserved region of the head domain); linker between the Smc1 stretch and the TAT stretch; 11-amino acid peptide from the HIV TAT protein, added for delivery into cells; The methods of the biosensing experiment call the immobilised peptide CIP3; also called TAT-CIP3; source: synthetic peptide (Fmoc solid-phase synthesis, purified by preparative RP-HPLC)
T1 peptide: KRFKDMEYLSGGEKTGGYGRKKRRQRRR

CIP3-TAT [4] = molecular target: T1, CIP3-TAT; assay: field-effect biosensing (FEB Agile R100); 500 nM peptide immobilised on a graphene sensor chip; purified Smc3 head domain as analyte in rising concentrations; PBS baseline; without ATP; Kd by Hill fit or from kon and koff at a single concentration; details: both partners purified

Row | Molecule | growth of cells overexpressing the peptide [1] | growth rate vs control, multiple linear regression coefficient B [1] | biological effect, preliminary analysis (cohesin in yeast cells) | further results
1 | MKRFKDMEYLSGGEKT [CIP3, expressed from pME3] | weak growth delay; also recorded: significant decrease in growth rate | −0.727 |  | growth inhibition compared to previous (non-T2A) experiment (yeast cells): the inhibition fold was not improved; Pi accumulation (ATPase activity) after 5 min (cohesin holocomplex): Pi accumulation dropped sharply, indicating that ATPase activity was inhibited
2 | FITC-SGYGRKKRRQRRR-GGGLNPYWMETFT [ContP, 26-amino acid control peptide fused to the TAT and a fluorescein isothiocyanate (FITC) fluorophore] |  |  |  | peptide entry into yeast cells [2]: emission from cells incubated with the ContP peptide
3 | MKQNEQLHVEQLSGGQKTV [CIP1, expressed from pME4] | no significant decrease in growth rate | 0.015 | do not have a detectable biological effect | 
4 | MIIGSNGSGKSN [CIP2, expressed from pME2] | no significant decrease in growth rate | −0.290 | do not have a detectable biological effect | 
5 | B1 |  |  |  | Kd (CIP3-TAT [3]): 544.2 ± 0.06 nM; Kd (CIP3-TAT [4]): 53.9 nM and 56 nM
